The text below walks through data of ChEMBL document CHEMBL1152948, “Antimycobacterial activity of new 3,5-disubstituted 1,3,4-oxadiazol-2(3H)-one derivatives. Molecular modeling investigations” (2009).

≈ marks a conversion by molar mass, not a printed value. Calls of active or inactive are those of the source. No cut-off for these calls is given here.

The subject of one assay is Mycobacterium tuberculosis. Briefly: Antitubercular activity against Mycobacterium tuberculosis H37Rv at 5 ug/disk by microdilution resazurin assay. The format is functional, organism-based.
As for `NNC(=O)c1ccncc1` [ISONIAZID], the outcome was Active.

The subject of the next assay is Mycobacterium tuberculosis. Kind of assay: Antitubercular activity against Mycobacterium tuberculosis H37Rv by microdilution resazurin assay. The class given is functional.
Molecule `O=c1[nH]nc(-c2ccccn2)o1` registered an MIC of 4 µg/mL (≈ 24.5 µM). The same measure, in the same setting: under `O=c1[nH]nc(-c2ccccc2)o1` stands 32 µg/mL (≈ 197 µM); under `CO[C@H]1/C=C/O[C@@]2(C)Oc3c(C)c(O)c4c(O)c(c(/C=N/N5CCN(C)CC5)c(O)c4c3C2=O)NC(=O)/C(C)=C\C=C\[C@H](C)[C@H](O)[C@@H](C)[C@@H](O)[C@@H](C)[C@H](OC(C)=O)[C@@H]1C` [RIFAMPIN], 1 µg/mL (≈ 1.22 µM); under `CN(Cc1ccccc1F)Cn1nc(-c2ccncc2)oc1=O`, 4 µg/mL (≈ 12.7 µM). The molecule `O=c1[nH]nc(-c2ccncc2)o1` [NEOVADRINE] gave an MIC of 4 µg/mL (≈ 24.5 µM). As to `CC1CCN(Cn2nc(-c3cnccn3)oc2=O)CC1`, the MIC is above 64 µg/mL. `NNC(=O)c1ccncc1` [ISONIAZID] returned an MIC of 0.5 µg/mL (≈ 3.65 µM). Molecule `CN(Cc1ccc(F)cc1)Cn1nc(-c2ccncc2)oc1=O` registered an MIC of 4 µg/mL (≈ 12.7 µM).

`O=c1[nH]nc(-c2cnccn2)o1` displayed an MIC above 64 µg/mL. Take `CC1CCN(Cn2nc(-c3ccccn3)oc2=O)CC1`: 4 µg/mL (≈ 14.6 µM) was the least that counted as inhibitory (MIC). Same read-out and setting: to `O=c1oc(-c2cnccn2)nn1CN1CCCCC1` belongs above 64 µg/mL; to `O=c1oc(-c2cccnc2)nn1CN1CCCCC1`, 32 µg/mL (≈ 123 µM); to `CC1CCCN(Cn2nc(-c3ccccn3)oc2=O)C1` (configuration not stated), 4 µg/mL (≈ 14.6 µM). `O=c1oc(-c2ccccc2)nn1CN1CCCCC1` returned an MIC of 32 µg/mL (≈ 123 µM).

As to `CN(Cc1cccc(F)c1)Cn1nc(-c2ccncc2)oc1=O`, 8 µg/mL (≈ 25.5 µM) was the least that counted as inhibitory (MIC). The same measure, in the same setting: under `CC1CCCCN1Cn1nc(-c2ccccc2)oc1=O` (configuration not stated) stands 32 µg/mL (≈ 117 µM). `O=c1[nH]nc(-c2cccnc2)o1` returned an MIC of 32 µg/mL (≈ 196 µM). As to `CN(Cc1ccccc1)Cn1nc(-c2ccncc2)oc1=O`, the minimum inhibitory concentration (MIC) turned out to be 8 µg/mL (≈ 27 µM). `CN(Cc1ccc(Cl)cc1Cl)Cn1nc(-c2ccncc2)oc1=O`: the MIC was determined as 8 µg/mL (≈ 21.9 µM).

`CC1CCN(Cn2nc(-c3cccnc3)oc2=O)CC1` had an MIC above 64 µg/mL. Take `O=c1oc(-c2ccccn2)nn1CN1CCCCC1`: the MIC amounted to 4 µg/mL (≈ 15.4 µM). The molecule `CN(Cc1ccc(Cl)cc1)Cn1nc(-c2ccncc2)oc1=O` yielded an MIC of 8 µg/mL (≈ 24.2 µM). Against the preceding molecule, the MIC is about 2-fold higher. For the molecule `CN(Cc1cccc2ccccc12)Cn1nc(-c2ccncc2)oc1=O`, the MIC turned out to be 8 µg/mL (≈ 23.1 µM). The molecule `CC1CCCN(Cn2nc(-c3cccnc3)oc2=O)C1` (configuration not stated) had an MIC of 32 µg/mL (≈ 117 µM).

In turn, `CN(Cc1cccc(Cl)c1)Cn1nc(-c2ccncc2)oc1=O` had an MIC of 8 µg/mL (≈ 24.2 µM). This MIC is about 4-fold lower than that of the molecule before. The molecule `CN(Cc1ccccc1Cl)Cn1nc(-c2ccncc2)oc1=O` gave an MIC of 8 µg/mL (≈ 24.2 µM). In turn, `CN(Cc1ccc(Br)cc1)Cn1nc(-c2ccncc2)oc1=O` returned an MIC of 4 µg/mL (≈ 10.7 µM).

Molecule `CN(Cc1cccc(Br)c1)Cn1nc(-c2ccncc2)oc1=O` showed an MIC of 4 µg/mL (≈ 10.7 µM). Molecule `Cc1ccc(CN(C)Cn2nc(-c3ccncc3)oc2=O)cc1` registered an MIC of 4 µg/mL (≈ 12.9 µM). `CC1CCCCN1Cn1nc(-c2ccccn2)oc1=O` (configuration not stated) returned a minimal inhibitory concentration (MIC) of 4 µg/mL (≈ 14.6 µM).

On to `CC1CCCCN1Cn1nc(-c2cccnc2)oc1=O` (configuration not stated), for which the MIC came out at 32 µg/mL (≈ 117 µM).

As for `CC1CCCN(Cn2nc(-c3cnccn3)oc2=O)C1` (configuration not stated), the MIC was above 64 µg/mL. `CN(Cc1ccccc1Br)Cn1nc(-c2ccncc2)oc1=O` displayed an MIC of 8 µg/mL (≈ 21.3 µM). On to `CC1CCN(Cn2nc(-c3ccccc3)oc2=O)CC1`, for which it took 32 µg/mL (≈ 117 µM) to inhibit growth (MIC). `CC1CCCN(Cn2nc(-c3ccccc3)oc2=O)C1` (configuration not stated) displayed an MIC of 32 µg/mL (≈ 117 µM).

Another assay has as its system Mycobacterium tuberculosis. Briefly: Antitubercular activity against Mycobacterium tuberculosis H37Rv at 30 ug/disk by microdilution resazurin assay. The format is functional, organism-based.
As for `CO[C@H]1/C=C/O[C@@]2(C)Oc3c(C)c(O)c4c(O)c(c(/C=N/N5CCN(C)CC5)c(O)c4c3C2=O)NC(=O)/C(C)=C\C=C\[C@H](C)[C@H](O)[C@@H](C)[C@@H](O)[C@@H](C)[C@H](OC(C)=O)[C@@H]1C` [RIFAMPIN], the result was Active.
